Experimental data reported in PubChem BioAssay AID2060503 (Molecular Pharmacology Branch, DTP, NCI, 2025).

Test system: 817829-284-R-J1-PDC complex spheroids, viability
Test: Anticancer human tumor 817829-284-R-J1-PDC patient-derived colon adenocarcinoma cell line growth inhibition [GQUAD]
Conditions: for IC50: curve of first compound; for viability, T/C: stronger effect = lower value
Summary of the method: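 Viability of tumor cells grown as complex spheroids with endothelial and stromal cells, exposed to drug combinations. Top concentration at or near clinical Cmax (else 10 microM), diluted in half-log increments.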

[1] = second compound 0.0316 µM, first compound 0.0316 µM
[2] = second compound 0.0316 µM, first compound 0.1 µM
[3] = second compound 0.0316 µM, first compound 0.316 µM
[4] = second compound 0.0316 µM, first compound 1 µM
[5] = second compound 0.0316 µM, first compound 3.16 µM
[6] = second compound 0.0316 µM, first compound 10 µM
[7] = second compound 0.1 µM, first compound 0.0316 µM
[8] = second compound 0.1 µM, first compound 0.1 µM
[9] = second compound 0.1 µM, first compound 0.316 µM
[10] = second compound 0.1 µM, first compound 1 µM
[11] = second compound 0.1 µM, first compound 3.16 µM
[12] = second compound 0.1 µM, first compound 10 µM
[13] = second compound 0.316 µM, first compound 0.0316 µM
[14] = second compound 0.316 µM, first compound 0.1 µM
[15] = second compound 0.316 µM, first compound 0.316 µM
[16] = second compound 0.316 µM, first compound 1 µM
[17] = second compound 0.316 µM, first compound 3.16 µM
[18] = second compound 0.316 µM, first compound 10 µM
[19] = second compound 1 µM, first compound 0.0316 µM
[20] = second compound 1 µM, first compound 0.1 µM
[21] = second compound 1 µM, first compound 0.316 µM
[22] = second compound 1 µM, first compound 1 µM
[23] = second compound 1 µM, first compound 3.16 µM
[24] = second compound 1 µM, first compound 10 µM
[25] = second compound 3.16 µM, first compound 0.0316 µM
[26] = second compound 3.16 µM, first compound 0.1 µM
[27] = second compound 3.16 µM, first compound 0.316 µM
[28] = second compound 3.16 µM, first compound 1 µM
[29] = second compound 3.16 µM, first compound 3.16 µM
[30] = second compound 3.16 µM, first compound 10 µM
[31] = second compound 10 µM, first compound 0.0316 µM
[32] = second compound 10 µM, first compound 0.1 µM
[33] = second compound 10 µM, first compound 0.316 µM
[34] = second compound 10 µM, first compound 1 µM
[35] = second compound 10 µM, first compound 3.16 µM
[36] = second compound 10 µM, first compound 10 µM
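Note: spheroids exposed to agents for 7 days before readout.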
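Throughout, for viability, T/C: percent viability relative to DMSO vehicle control taken as 100%.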

O=c1[nH]cc(F)c(=O)[nH]1 + Cc1[nH]c2ccc(F)cc2c1-c1nc2c3cccnc3c3ncccc3c2[nH]1
IC50 (second compound 0.0316 µM): 1590 nM
IC50 (second compound 0.1 µM): 1940 nM
IC50 (second compound 0.316 µM): 1990 nM
IC50 (second compound 1 µM): 1880 nM
IC50 (second compound 3.16 µM): 684 nM
IC50 (second compound 10 µM): 234 nM
viability, T/C [1]: 113%
viability, T/C [2]: 92.3%
viability, T/C [3]: 106%
viability, T/C [4]: 58.9%
viability, T/C [5]: 42.2%
viability, T/C [6]: 31.4%
viability, T/C [7]: 86.8%
viability, T/C [8]: 101%
viability, T/C [9]: 115%
viability, T/C [10]: 68.9%
viability, T/C [11]: 40.5%
viability, T/C [12]: 31.5%
viability, T/C [13]: 91.1%
viability, T/C [14]: 113%
viability, T/C [15]: 137%
viability, T/C [16]: 69.2%
viability, T/C [17]: 40.3%
viability, T/C [18]: 33.8%
viability, T/C [19]: 92.2%
viability, T/C [20]: 113%
viability, T/C [21]: 113%
viability, T/C [22]: 67.3%
viability, T/C [23]: 39.1%
viability, T/C [24]: 32.2%
viability, T/C [25]: 106%
viability, T/C [26]: 106%
viability, T/C [27]: 87.6%
viability, T/C [28]: 31.3%
viability, T/C [29]: 27.5%
viability, T/C [30]: 20.4%
viability, T/C [31]: 31.7%
viability, T/C [32]: 73.2%
viability, T/C [33]: 48.5%
viability, T/C [34]: 15.9%
viability, T/C [35]: 7.19%
viability, T/C [36]: 8.78%

O=C(NO)c1cnc(N2CCN(S(=O)(=O)c3ccc4ccccc4c3)CC2)nc1 + Cc1cnc(CNC(=O)c2c(=O)c3ccc(N4CCCN(C)CC4)nc3n3c2sc2ccccc23)cn1
IC50 (second compound 0.0316 µM): 53.3 nM
IC50 (second compound 0.1 µM): < 31.6 nM
IC50 (second compound 0.316 µM): < 31.6 nM
IC50 (second compound 1 µM): < 31.6 nM
IC50 (second compound 3.16 µM): < 31.6 nM
IC50 (second compound 10 µM): < 31.6 nM
viability, T/C [1]: 77.5%
viability, T/C [2]: 16.4%
viability, T/C [3]: 5.04%
viability, T/C [4]: 0.12%
viability, T/C [5]: 0.03%
viability, T/C [6]: 0.07%
viability, T/C [7]: 19.2%
viability, T/C [8]: 21.4%
viability, T/C [9]: 3.6%
viability, T/C [10]: 0.1%
viability, T/C [11]: 0.02%
viability, T/C [12]: 0.06%
viability, T/C [13]: 18.8%
viability, T/C [14]: 18.1%
viability, T/C [15]: 4.03%
viability, T/C [16]: 0.05%
viability, T/C [17]: 0.02%
viability, T/C [18]: 0.06%
viability, T/C [19]: 17.5%
viability, T/C [20]: 16.4%
viability, T/C [21]: 1.77%
viability, T/C [22]: 0.04%
viability, T/C [23]: 0.03%
viability, T/C [24]: 0.07%
viability, T/C [25]: 14.8%
viability, T/C [26]: 12.7%
viability, T/C [27]: 0.09%
viability, T/C [28]: 0.05%
viability, T/C [29]: 0.06%
viability, T/C [30]: 0.09%
viability, T/C [31]: 0.07%
viability, T/C [32]: 0.11%
viability, T/C [33]: 0.13%
viability, T/C [34]: 0.09%
viability, T/C [35]: 0.14%
viability, T/C [36]: 0.15%
